Assay results published in patent US6710168B1, “Glycopeptide antibiotics, combinatorial libraries of glycopeptide antibiotics and methods of producing same” (The Trustees of the University of Princeton, priority 1999, dated 2004).
Converted amounts (≈) assume the structure as drawn.

What was measured:
Type in all cases: cell-based
[1] = test system: gentamicin, streptmycin, vancomycin resistant Enterococcus faecalis (ATCC 51299); experiment: microbe, parasite or virus in culture; settings: for MIC VREF: Enterococcus faecalis ATCC51299, vancomycin resistance; for MIC: Enterococcus faecalis, ATCC51299, read-out: MIC VREF
Experimental: (§1) Evaluation of vancomycin analogs is performed using in vitro susceptibility tests and a time-kill assay. [NCCL Standard, 1993] In susceptibility tests, five strains of bacteria, two of the most important: Staphylococcus aureus and Enterococcus faecalis (both susceptible and resistant strains), and Bacillus cereus are chosen and bacteria viability remaining in each well is evaluated using a colorimetric assay based on the tetrazolium salt 3-(4,5-dimethyl-2-thiazolyl)-2,5-diphenyl-2H tetrazolium bromide (MTT) and minimum inhibitory concentration (MIC) values are determined as μg/mL. [Mosmann, T. (1983); Damour, O., et al. (1992); Mikami, Y., et al. (1994)] This assay gives susceptibility information quickly, efficiently, and clearly.
(§2) All strains [Bacillus cereus (ATCC® 11778), Staphylococcus aureus (ATCC® 29213), Methicillin resistant Staphylococcus aureus (ATCC® 33591), Enterococcus faecalis (ATCC® 29212), and gentamicin, streptmycin, vancomycin resistant Enterococcus faecalis (ATCC® 51299), are purchased from REMEL (Lenexa, Kans.).
(§3) MICs are determined by the microdilution method using 96-well microplates. Samples are suspended with Cation Adjusted (20 to 25 mg of Ca^2+/mL and 10 to […] of Mg^2+) Mueller-Hinton broth (Difco Laboratories, Detroit, Mich.) and are two-fold diluted from 5 μg/mL to […] on microplates (12 step dilution). To each well, which contained 100 μL of cell suspension (10^6 CFU/mL), 100 μL of antibiotic solution is added and the plates are incubated at 37° C. for 24 h. 50 μL of MTT solution (1 mg/mL) is added to each well, then the plates are incubated under the same conditions (incubation time; 30 min for Bacillus cereus, Staphylococcus aureus, and Methicillin resistant Staphylococcus aureus; 2 hours for Enterococcus faecalis and Gentamicin, Streptmycin, Vancomycin Enterococcus faecalis). MTT is a yellow tetrazolium salt that is reduced by mitochondrial enzymes in viable cells to an insoluble blue formazan product. MIC values are evaluated by observing the lowest drug concentration to inhibit bacteria growth.

[2] = test system: Enterococcus faecium CL5137, VanA; experiment: MIC susceptibility test; settings: for MIC CL5137: Enterococcus faecium CL5137, VanA; for MIC: Enterococcus faecium, read-out: MIC CL5137
[3] = test system: Methicillin resistant Staphylococcus aureus (ATCC 33591); experiment: MIC susceptibility test, microdilution with MTT readout; settings: for MIC MRSA: Staphylococcus aureus ATCC3359, Methicillin resistance; for MIC: Staphylococcus aureus, ATCC 3359 / ATCC 33591 / MRSA, read-out: MIC MRSA
Experimental: as §1, §2, §3

[4] = test system: Enterococcus faecalis (ATCC 29212); experiment: as above; settings: for MIC EF: Enterococcus faecalis ATCC29212; for MIC: Enterococcus faecalis, ATCC29212, read-out: MIC EF
Experimental: as §1, §2, §3

[5] = test system: Bacillus cereus (ATCC 11778); experiment: as above; settings: for MIC BC: Bacillus ceres ATCC11778; for MIC: Bacillus cereus, ATCC11778, read-out: MIC BC
Experimental: as §1, §2, §3

[6] = test system: Staphylococcus aureus (ATCC 29213); experiment: as above; settings: for MIC SA: Staphylococcus aureus ATCC29213; for MIC: Staphylococcus aureus, ATCC29213, read-out: MIC SA
Experimental: as §1, §2, §3

[7] = test system: Enterococcus faecalis CL5244, VanB; experiment: MIC susceptibility test; settings: for MIC CL5244: Enterococcus faecalis CL5244, VanB; for MIC: Enterococcus faecalis, read-out: MIC CL5244
Experimental: as §1, §3

Row | SMILES | MIC VREF [1] | MIC CL5137 [2] | MIC MRSA [3] | MIC EF [4] | MIC BC [5] | MIC SA [6] | MIC CL5244 [7] | MIC [1] | MIC [2] | MIC [3] | MIC [4] | MIC [5] | MIC [6] | MIC [7]
1 | CNC(CC(C)C)C(=O)NC1C(=O)NC(CC(N)=O)C(=O)NC2C(=O)NC3C(=O)NC(C(=O)NC(C(=O)O)c4cc(O)cc(O)c4-c4cc3ccc4O)C(O)c3ccc(c(Cl)c3)Oc3cc2cc(c3OC2OC(CN=P(c3ccccc3)(c3ccccc3)c3ccccc3)C(O)C(O)C2OC2CC(C)(NCc3ccc(-c4ccc(Cl)cc4)cc3)C(O)C(C)O2)Oc2ccc(cc2Cl)C1O.O=C(O)C(F)(F)F (stereo not drawn) [CXXXVI, N-4-(4-Chlorophenyl)benzyl Vancosamine-glucose-C6-iminotriphenylphosphorane Vancomycin] | 0.16 µg/mL | 5.0 µg/mL | 0.32 µg/mL | 0.32 µg/mL | 1.3 µg/mL | 1.3 µg/mL | 0.32 µg/mL | – | – | – | – | – | – | –
2 | CN[C@H](CC(C)C)C(=O)N[C@H]1C(=O)N[C@@H](CC(N)=O)C(=O)N[C@H]2C(=O)N[C@H]3C(=O)N[C@H](C(=O)N[C@H](C(=O)O)c4cc(O)cc(O)c4-c4cc3ccc4O)[C@H](O)c3ccc(c(Cl)c3)Oc3cc2cc(c3OC2OC(CO)C(O)C(O)C2OC2CC(C)(N)C(O)C(C)O2)Oc2ccc(cc2Cl)[C@H]1O (stereo partly drawn) [I, vancomycin, reference compound] | – | – | – | – | – | – | – | > 5 µg/mL | 1600 µg/mL (≈ 1100 µM) | 1.3 µg/mL (≈ 0.897 µM) | 1.3 µg/mL (≈ 0.897 µM) | 1 µg/mL (≈ 0.69 µM) | 1 µg/mL (≈ 0.69 µM) | 25 µg/mL (≈ 17.3 µM)
3 | CNC(CC(C)C)C(=O)NC1C(=O)NC(CC(N)=O)C(=O)NC2C(=O)NC3C(=O)NC(C(=O)NC(C(=O)O)c4cc(O)cc(O)c4-c4cc3ccc4O)C(O)c3ccc(c(Cl)c3)Oc3cc2cc(c3OC2OC(CNCc3ccc(-c4ccc(Cl)cc4)o3)C(O)C(O)C2OC2CC(C)(NCc3ccc(-c4ccc(Cl)cc4)cc3)C(O)C(C)O2)Oc2ccc(cc2Cl)C1O (stereo not drawn) [L, Glucose-C6-N-5-(4-chlorophenyl)furan-1-methylene-vancosamine-N-4-(4-chlorophenyl)benzyl Vancomycin] | 1.0 µg/mL (≈ 0.544 µM) | 6.3 µg/mL (≈ 3.42 µM) | 2.5 µg/mL (≈ 1.36 µM) | 1.3 µg/mL (≈ 0.707 µM) | 3.8 µg/mL (≈ 2.07 µM) | 5.0 µg/mL (≈ 2.72 µM) | 0.8 µg/mL (≈ 0.435 µM) | – | – | – | – | – | – | –
4 | CCCCCCCCCCNC1(C)CC(OC2C(Oc3c4cc5cc3Oc3ccc(cc3Cl)C(O)C3NC(=O)C(NC(=O)C5NC(=O)C(CC(N)=O)NC(=O)C(NC(=O)C(CC(C)C)NC)C(O)c5ccc(c(Cl)c5)O4)c4ccc(O)c(c4)-c4c(O)cc(O)cc4C(C(=O)O)NC3=O)OC(CNC(=O)c3cnc4ccccc4n3)C(O)C2O)OC(C)C1O (stereo not drawn) [LI, Glucose-C6-N-2-quinoxaloyl-vancosamine-N-decyl Vancomycin] | 1.3 µg/mL (≈ 0.745 µM) | 6.3 µg/mL (≈ 3.61 µM) | 5.0< μg/mL | 0.63 µg/mL (≈ 0.361 µM) | 2.5 µg/mL (≈ 1.43 µM) | 5.0< μg/mL | 0.2 µg/mL (≈ 0.115 µM) | – | – | – | – | – | – | –
5 | CN[C@H](CC(C)C)C(=O)N[C@H]1C(=O)N[C@@H](CC(N)=O)C(=O)N[C@H]2C(=O)N[C@H]3C(=O)N[C@H](C(=O)N[C@H](C(=O)O)c4cc(O)cc(O)c4-c4cc3ccc4O)[C@H](O)c3ccc(c(Cl)c3)Oc3cc2cc(c3OC2OC(CNC(=O)c3cnc4ccccc4n3)C(O)C(O)C2OC2CC(C)(NCc3ccc(-c4ccc(Cl)cc4)cc3)C(O)C(C)O2)Oc2ccc(cc2Cl)[C@H]1O (stereo partly drawn) [LII, Glucose-C6-N-2-quinoxaloyl-vancosamine-N-4-(4-chlorophenyl)benzyl Vancomycin] | – | – | – | – | – | – | – | 0.16 µg/mL (≈ 0.0886 µM) | 3.2 µg/mL (≈ 1.77 µM) | 5 µg/mL (≈ 2.77 µM) | 0.08 µg/mL (≈ 0.0443 µM) | 1.9 µg/mL (≈ 1.05 µM) | 5 µg/mL (≈ 2.77 µM) | 0.2 µg/mL (≈ 0.111 µM)
6 | CNC(CC(C)C)C(=O)NC1C(=O)NC(CC(N)=O)C(=O)NC2C(=O)NC3C(=O)NC(C(=O)NC(C(=O)O)c4cc(O)cc(O)c4-c4cc3ccc4O)C(O)c3ccc(c(Cl)c3)Oc3cc2cc(c3OC2OC(CSC(C)C)C(O)C(O)C2OC2CC(C)(N)C(O)C(C)O2)Oc2ccc(cc2Cl)C1O (stereo not drawn) [LIII, Glucose-C6-thiopropianato Vancomycin] | 5.0< μg/mL | – | 2.5 µg/mL (≈ 1.66 µM) | 2.5 µg/mL (≈ 1.66 µM) | 1.3 µg/mL (≈ 0.862 µM) | 2.5 µg/mL (≈ 1.66 µM) | – | – | – | – | – | – | – | –
7 | CNC(CC(C)C)C(=O)NC1C(=O)NC(CC(N)=O)C(=O)NC2C(=O)NC3C(=O)NC(C(=O)NC(C(=O)O)c4cc(O)cc(O)c4-c4cc3ccc4O)C(O)c3ccc(c(Cl)c3)Oc3cc2cc(c3OC2OC(CSCC(=O)O)C(O)C(O)C2OC2CC(C)(N)C(O)C(C)O2)Oc2ccc(cc2Cl)C1O (stereo not drawn) [LXXI, Glucose-C6-thioacetato Vancomycin] | 5.0< μg/mL | – | 5.0< μg/mL | 5.0< μg/mL | 5.0< μg/mL | 5.0 µg/mL (≈ 3.28 µM) | – | – | – | – | – | – | – | –
8 | CCCCCCCCCCNCC1OC(Oc2c3cc4cc2Oc2ccc(cc2Cl)C(O)C2NC(=O)C(NC(=O)C4NC(=O)C(CC(N)=O)NC(=O)C(NC(=O)C(CC(C)C)NC)C(O)c4ccc(c(Cl)c4)O3)c3ccc(O)c(c3)-c3c(O)cc(O)cc3C(C(=O)O)NC2=O)C(OC2CC(C)(N)C(O)C(C)O2)C(O)C1O (stereo not drawn) [XXXI, Glucose-C6-N-decyl Vancomycin] | 2.5 µg/mL (≈ 1.57 µM) | – | 1.3 µg/mL (≈ 0.818 µM) | 0.32 µg/mL (≈ 0.201 µM) | 1.3 µg/mL (≈ 0.818 µM) | 1.3 µg/mL (≈ 0.818 µM) | – | – | – | – | – | – | – | –
9 | CNC(=S)NCC1OC(Oc2c3cc4cc2Oc2ccc(cc2Cl)C(O)C2NC(=O)C(NC(=O)C4NC(=O)C(CC(N)=O)NC(=O)C(NC(=O)C(CC(C)C)NC)C(O)c4ccc(c(Cl)c4)O3)c3ccc(O)c(c3)-c3c(O)cc(O)cc3C(C(=O)O)NC2=O)C(OC2CC(C)(N)C(O)C(C)O2)C(O)C1O (stereo not drawn) [XXXII, Glucose-C6-N-thiocarbonyl Methylamino Vancomycin] | 5.0 µg/mL (≈ 3.29 µM) | – | 2.5 µg/mL (≈ 1.64 µM) | 1.3 µg/mL (≈ 0.854 µM) | 1.9 µg/mL (≈ 1.25 µM) | 1.9 µg/mL (≈ 1.25 µM) | – | – | – | – | – | – | – | –
10 | CNC(CC(C)C)C(=O)NC1C(=O)NC(CC(N)=O)C(=O)NC2C(=O)NC3C(=O)NC(C(=O)NC(C(=O)O)c4cc(O)cc(O)c4-c4cc3ccc4O)C(O)c3ccc(c(Cl)c3)Oc3cc2cc(c3OC2OC(CNC(=O)c3cccs3)C(O)C(O)C2OC2CC(C)(N)C(O)C(C)O2)Oc2ccc(cc2Cl)C1O (stereo not drawn) [XXXIII, Glucose-C6-N-(thiophene-2-carboxamide) Vancomycin] | 5.0 µg/mL (≈ 3.21 µM) | – | 2.5 µg/mL (≈ 1.6 µM) | 1.3 µg/mL (≈ 0.834 µM) | 1.3 µg/mL (≈ 0.834 µM) | 1.3 µg/mL (≈ 0.834 µM) | – | – | – | – | – | – | – | –
11 | CNC(CC(C)C)C(=O)NC1C(=O)NC(CC(N)=O)C(=O)NC2C(=O)NC3C(=O)NC(C(=O)NC(C(=O)O)c4cc(O)cc(O)c4-c4cc3ccc4O)C(O)c3ccc(c(Cl)c3)Oc3cc2cc(c3OC2OC(CNC(=O)CN)C(O)C(O)C2OC2CC(C)(N)C(O)C(C)O2)Oc2ccc(cc2Cl)C1O (stereo not drawn) [XXXIV, Glucose-C6-N-(glycine-carboxamide) Vancomycin] | 5.0< μg/mL | – | 2.5 µg/mL (≈ 1.66 µM) | 2.5 µg/mL (≈ 1.66 µM) | 5.0 µg/mL (≈ 3.32 µM) | 1.9 µg/mL (≈ 1.26 µM) | – | – | – | – | – | – | – | –
12 | CCCCCCCCCCCCCC(=O)NCC1OC(Oc2c3cc4cc2Oc2ccc(cc2Cl)C(O)C2NC(=O)C(NC(=O)C4NC(=O)C(CC(N)=O)NC(=O)C(NC(=O)C(CC(C)C)NC)C(O)c4ccc(c(Cl)c4)O3)c3ccc(O)c(c3)-c3c(O)cc(O)cc3C(C(=O)O)NC2=O)C(OC2CC(C)(N)C(O)C(C)O2)C(O)C1O (stereo not drawn) [XXXV, Glucose-C6-N-myristoyl Vancomycin] | 0.16 µg/mL (≈ 0.0965 µM) | – | 1.3 µg/mL (≈ 0.784 µM) | 0.015 µg/mL (≈ 0.00904 µM) | 3.8 µg/mL (≈ 2.29 µM) | 2.5 µg/mL (≈ 1.51 µM) | – | – | – | – | – | – | – | –
13 | CNC(CC(C)C)C(=O)NC1C(=O)NC(CC(N)=O)C(=O)NC2C(=O)NC3C(=O)NC(C(=O)NC(C(=O)O)c4cc(O)cc(O)c4-c4cc3ccc4O)C(O)c3ccc(c(Cl)c3)Oc3cc2cc(c3OC2OC(CNC(=O)c3ccccc3I)C(O)C(O)C2OC2CC(C)(N)C(O)C(C)O2)Oc2ccc(cc2Cl)C1O (stereo not drawn) [XXXVI, Glucose-C6-N-2-iodobenzoyl Vancomycin] | 2.5 µg/mL (≈ 1.49 µM) | – | 2.5 µg/mL (≈ 1.49 µM) | 1.3 µg/mL (≈ 0.775 µM) | 1.3 µg/mL (≈ 0.775 µM) | 1.3 µg/mL (≈ 0.775 µM) | – | – | – | – | – | – | – | –
